In PubChem BioAssay AID248 (DTP/NCI, 2004) one finds T/C data, which are given here for 19 compounds.

This experiment has as its system L1210 leukemia ip in BDF1 mice, survival T/C. Description: NCI In Vivo Anticancer Drug Screen. Data for tumor model L1210 Leukemia (intraperitoneal) in B6D2F1 (BDF1) mice. Conditions: endpoint: mean survival time, higher = longer survival. In short, it runs like this: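 Antitumor effect is assessed in tumor-bearing animals. Survival in the compound arm is compared with a vehicle-dosed control arm and expressed as their quotient.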

Where [1] appears, read: dose: 100.0 mg/kg/injection, schedule: Q01DX009 (ip), vehicle: Klucel (hydroxypropylcellulose) (HPC).
Setting [2] is: dose: 100.0 mg/kg/injection, schedule: Q04DX003 (ip), vehicle: Klucel (hydroxypropylcellulose) (HPC).
Setting [3] is: dose: 200.0 mg/kg/injection, schedule: Q01DX009 (ip), vehicle: Klucel (hydroxypropylcellulose) (HPC).
Where [4] appears, read: dose: 200.0 mg/kg/injection, schedule: Q04DX003 (ip), vehicle: Klucel (hydroxypropylcellulose) (HPC).
Where [5] appears, read: dose: 400.0 mg/kg/injection, schedule: Q01DX009 (ip), vehicle: Klucel (hydroxypropylcellulose) (HPC).
Setting [6] is: dose: 400.0 mg/kg/injection, schedule: Q04DX003 (ip), vehicle: Klucel (hydroxypropylcellulose) (HPC).
Where [7] appears, read: dose: 100.0 mg/kg/injection, schedule: Q04DX002 (ip), vehicle: saline with Tween-80.
[8] abbreviates: dose: 200.0 mg/kg/injection, schedule: Q04DX002 (ip), vehicle: saline with Tween-80.
Where [9] appears, read: dose: 100.0 mg/kg/injection, schedule: Q04DX002 (ip), vehicle: Klucel (hydroxypropylcellulose) (HPC).
The mark [10] stands for this setting: dose: 400.0 mg/kg/injection, schedule: Q04DX002 (ip), vehicle: saline with Tween-80.
Setting [11] is: dose: 25.0 mg/kg/injection, schedule: Q01DX009 (ip), vehicle: saline.
[12] abbreviates: dose: 50.0 mg/kg/injection, schedule: Q01DX009 (ip), vehicle: saline.
[13] abbreviates: dose: 100.0 mg/kg/injection, schedule: Q04DX003 (ip), vehicle: saline.
[14] abbreviates: dose: 100.0 mg/kg/injection, schedule: Q01DX001 (ip), vehicle: saline.
Where [15] appears, read: dose: 200.0 mg/kg/injection, schedule: Q01DX001 (ip), vehicle: saline.
The mark [16] stands for this setting: dose: 400.0 mg/kg/injection, schedule: Q01DX001 (ip), vehicle: saline.
[17] abbreviates: dose: 200.0 mg/kg/injection, schedule: Q04DX003 (ip), vehicle: saline.
The mark [18] stands for this setting: dose: 400.0 mg/kg/injection, schedule: Q04DX003 (ip), vehicle: saline.

Values joined by “and” are separate entries in the source; they are usually repeats but may differ in a detail not shown here. Equal values may be shown once. Inconclusive results and toxic doses are left out.

Regarding `CCOc1ccccc1NC(=S)NC(=O)c1cccc([N+](=O)[O-])c1`, the T/C is, setting by setting: under setting [1], 100 % of control; under setting [2], 98 % of control; under setting [3], 96 % of control; under setting [4], 98 % of control; under setting [5], 96 % of control; under setting [6], 100 % of control.
As for `COC(=O)c1cc(OC)cc(OC)c1C(=O)c1c(OC)c(Cl)c(C)c(Cl)c1OC`, the T/C is 110 % of control (dose: 50.0 mg/kg/injection, schedule: Q04DX002 (ip), vehicle: saline with Tween-80); 95 % of control under setting [7]; 100 % of control under setting [8].
Take `CC1CCC2C(C)C3C(CC4C5CC=C6CC(OC7OC(COC8OC(CO)C(OC9OC(C)C(O)C(O)C9O)C(O)C8O)C(O)C(O)C7O)CCC6(C)C5CCC43C)N2C1` (configuration not stated): the T/C was 105 % of control (dose: 50.0 mg/kg/injection, schedule: Q04DX002 (ip), vehicle: Klucel (hydroxypropylcellulose) (HPC)) and 102 % of control under setting [9].
For `CCCCCCCCCCCC[N+]1([O-])CCOCC1`, the T/C under setting [8] is 94 % of control and the T/C under setting [10] was 102 % of control.
Consider `ClCCN1CCOCC1`, for which the T/C is 97 % of control under setting [11]; 93 % of control and 106 % of control (dose: 25.0 mg/kg/injection, schedule: Q04DX003 (ip), vehicle: saline); 100 % of control under setting [12]; 93 % of control and 111 % of control (dose: 50.0 mg/kg/injection, schedule: Q04DX003 (ip), vehicle: saline); 98 % of control and 104 % of control and 108 % of control under setting [13].
Take `O=C(Oc1c(Cl)cc(Cl)cc1C=Nc1ccc(Cl)cc1)c1ccccc1`: the T/C under setting [1] is 103 % of control, the T/C under setting [3] was 104 % of control and the T/C under setting [5] is 96 % of control.
As for `Cc1cc(C(C)(C)C)ccc1S(=O)(=O)C1CC1c1ccccc1` (configuration not stated), the T/C is, setting by setting: under setting [14], 98 % of control; under setting [15], 102 % of control; under setting [16], 98 % of control.
For the compound `CC1CC(=O)C=C(c2ccccc2)O1` (configuration not stated), the T/C is 101 % of control (dose: 75.0 mg/kg/injection, schedule: Q01DX009 (ip), vehicle: Klucel (hydroxypropylcellulose) (HPC)) and 101 % of control (dose: 150.0 mg/kg/injection, schedule: Q01DX009 (ip), vehicle: Klucel (hydroxypropylcellulose) (HPC)).
With `CCOC(=O)C(O)(O)C(C)C`, the T/C is 113 % of control under setting [14] and 113 % of control under setting [16].
As to `CSc1ccc(NC(=O)Nc2cccc(F)c2)cc1`, the T/C (dose: 100.0 mg/kg/injection, schedule: Q01DX009 (ip), vehicle: other) is 108 % of control and the T/C (dose: 200.0 mg/kg/injection, schedule: Q01DX009 (ip), vehicle: other) was 96 % of control.
As for `CCN(CC)Cc1ccccc1COC(=O)c1cccc(Cl)c1`, the T/C is, setting by setting: under setting [9], 103 % of control; (dose: 200.0 mg/kg/injection, schedule: Q04DX002 (ip), vehicle: Klucel (hydroxypropylcellulose) (HPC)) 103 % of control; (dose: 400.0 mg/kg/injection, schedule: Q04DX002 (ip), vehicle: Klucel (hydroxypropylcellulose) (HPC)) 92 % of control.
Consider `O=C(O)/C=C/C(=O)Nc1ccc2c(c1)C(NC(=O)/C=C/C(=O)O)c1ccccc1-2` (configuration not stated), for which the T/C reads like this: under setting [14], 93 % of control; under setting [13], 100 % of control; under setting [15], 97 % of control; under setting [17], 96 % of control; under setting [16], 88 % of control; under setting [18], 92 % of control.
For `OCNC(=S)c1c(Cl)cccc1Cl`, the T/C reads like this: (dose: 100.0 mg/kg/injection, schedule: Q04DX003 (ip), vehicle: saline with Tween-80) 100 % of control; (dose: 200.0 mg/kg/injection, schedule: Q04DX003 (ip), vehicle: saline with Tween-80) 102 % of control; (dose: 400.0 mg/kg/injection, schedule: Q04DX003 (ip), vehicle: saline with Tween-80) 102 % of control.
Turning to `CCCCc1ccc(O)c(O)c1O`, the T/C by setting is: (dose: 50.0 mg/kg/injection, schedule: Q01DX001 (sc), vehicle: olive oil, sesame oil, peanut oil) 117 % of control; (dose: 100.0 mg/kg/injection, schedule: Q01DX001 (sc), vehicle: olive oil, sesame oil, peanut oil) 101 % of control and 106 % of control; (dose: 200.0 mg/kg/injection, schedule: Q01DX001 (sc), vehicle: olive oil, sesame oil, peanut oil) 101 % of control and 105 % of control; (dose: 400.0 mg/kg/injection, schedule: Q01DX001 (sc), vehicle: olive oil, sesame oil, peanut oil) 108 % of control.
In the case of `N#CC1(Nc2ccc3c4c(cccc24)CC3)CCCCC1`, the T/C is 95 % of control under setting [7], 109 % of control under setting [8] and 95 % of control under setting [10].
For `[O-]c1c[n+](C23CCC(c4ccccc42)c2ccccc23)no1`, the T/C runs as follows: under setting [1], 102 % of control; under setting [2], 100 % of control; under setting [3], 102 % of control; under setting [4], 103 % of control; under setting [5], 95 % of control; under setting [6], 100 % of control.
Regarding `Cc1nc(CCl)no1`, the T/C was 104 % of control under setting [7] and 95 % of control under setting [8].
`NCCCN1CCN(CCCN)CC1`: the T/C is, setting by setting: under setting [14], 98 % of control; (dose: 100.0 mg/kg/injection, schedule: Q01DX009 (ip), vehicle: saline) 94 % of control and 103 % of control; under setting [13], 97 % of control; under setting [15], 90 % of control; (dose: 200.0 mg/kg/injection, schedule: Q01DX009 (ip), vehicle: saline) 94 % of control and 97 % of control; under setting [17], 96 % of control. For the same compound, the T/C is, setting by setting: under setting [16], 95 % of control; (dose: 400.0 mg/kg/injection, schedule: Q01DX009 (ip), vehicle: saline) 100 % of control and 88 % of control; under setting [18], 92 % of control.
For the compound `Cc1ccc(C(SCC(N)C(=O)O)(c2ccccc2)c2ccccc2)cc1` (configuration not stated), the T/C is 157 % of control (dose: 12.5 mg/kg/injection, schedule: Q01DX009 (ip), vehicle: other); 159 % of control (dose: 12.5 mg/kg/injection, schedule: Q01DX009 (ip), vehicle: saline); 157 % of control (dose: 25.0 mg/kg/injection, schedule: Q01DX009 (ip), vehicle: other); 171 % of control under setting [11]; 151 % of control (dose: 50.0 mg/kg/injection, schedule: Q01DX009 (ip), vehicle: other); 204 % of control under setting [12].
